Experimental findings from ChEMBL document CHEMBL1208792, “A novel series of [3.2.1] azabicyclic biaryl ethers as alpha3beta4 and alpha6/4beta4 nicotinic receptor agonists” (Bioorg Med Chem Lett, 2010) are described below.

The target of data set [1] is T1, Neuronal acetylcholine receptor; alpha3/beta4 (Homo sapiens, UniProt P30926+P32297). In words: Agonist activity at alpha3beta4 nicotinic receptor expressed in human HEK cells assessed as intracellular calcium […] by FLIPR relative to control. In kind it is functional, cell-based. Particulars: HEK293; call rule not given here.
T1 sequence (P30926 whole entry): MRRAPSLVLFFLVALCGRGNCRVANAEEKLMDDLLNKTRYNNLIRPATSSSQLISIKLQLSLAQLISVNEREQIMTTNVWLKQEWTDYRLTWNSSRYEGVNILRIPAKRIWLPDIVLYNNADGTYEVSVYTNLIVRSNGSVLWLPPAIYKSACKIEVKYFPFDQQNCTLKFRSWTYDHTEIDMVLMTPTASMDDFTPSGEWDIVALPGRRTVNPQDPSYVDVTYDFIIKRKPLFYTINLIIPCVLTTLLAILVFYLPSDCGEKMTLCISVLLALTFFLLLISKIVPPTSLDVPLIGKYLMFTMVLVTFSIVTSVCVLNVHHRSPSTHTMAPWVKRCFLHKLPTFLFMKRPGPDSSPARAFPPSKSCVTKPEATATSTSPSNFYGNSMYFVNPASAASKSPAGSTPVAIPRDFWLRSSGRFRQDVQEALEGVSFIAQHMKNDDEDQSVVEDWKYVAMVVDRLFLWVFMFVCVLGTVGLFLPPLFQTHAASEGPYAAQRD
T1 sequence (P32297 whole entry): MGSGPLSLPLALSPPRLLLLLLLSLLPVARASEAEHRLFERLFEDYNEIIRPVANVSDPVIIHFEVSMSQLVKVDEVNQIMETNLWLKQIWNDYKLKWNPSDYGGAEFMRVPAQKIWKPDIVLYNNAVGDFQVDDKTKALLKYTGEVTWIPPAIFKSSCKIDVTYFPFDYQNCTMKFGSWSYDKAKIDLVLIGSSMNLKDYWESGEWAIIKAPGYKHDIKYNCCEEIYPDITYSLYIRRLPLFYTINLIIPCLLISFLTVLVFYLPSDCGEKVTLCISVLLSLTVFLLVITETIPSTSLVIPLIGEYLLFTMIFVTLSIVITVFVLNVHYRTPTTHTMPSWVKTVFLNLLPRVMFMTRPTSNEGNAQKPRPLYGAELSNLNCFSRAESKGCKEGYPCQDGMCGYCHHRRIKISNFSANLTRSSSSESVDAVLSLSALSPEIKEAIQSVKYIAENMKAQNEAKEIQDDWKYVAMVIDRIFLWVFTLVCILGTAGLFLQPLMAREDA
Data set [2] concerns the target Neuronal acetylcholine receptor subunit alpha-7 (Homo sapiens, UniProt P36544). In words: Displacement of [3H]epibatidine from alpha7 nicotinic receptor expressed in human HEK293 cells. The class given is cell-based.
Data set [3] in a line: Displacement of [3H]epibatidine from alpha6/4beta4 nicotinic receptor expressed in human HEK293 cells. The class given is cell-based.
The target of data set [4] is T1, Neuronal acetylcholine receptor; alpha3/beta4. In words: Displacement of [3H]epibatidine from alpha3beta4 nicotinic receptor expressed in human HEK293 cells. In kind it is cell-based.
The target of data set [5] is Acetylcholine receptor; alpha1/beta1/delta/gamma (Homo sapiens, UniProt P02708+P07510+P11230+Q07001). In words: Binding affinity to alpha-1-beta-gamma-delta nicotinic receptor. The class given is protein-complex assay.
The target of data set [6] is T1, Neuronal acetylcholine receptor; alpha3/beta4. Briefly: Agonist activity at alpha3beta4 nicotinic receptor expressed in human HEK cells assessed as intracellular calcium efflux by FLIPR.
Data set [7] concerns the target Neuronal acetylcholine receptor; alpha4/beta2 (Homo sapiens, UniProt P17787+P43681). Briefly: Displacement of [3H]epibatidine from alpha4beta2 nicotinic receptor expressed in human HEK293 cells. In kind it is cell-based.
The nature of data set [8]: Agonist activity at human alpha6/4beta4 nicotinic receptor expressed in human HEK cells assessed as intracellular calcium […] by FLIPR. In kind it is functional, cell-based, HEK293.
Data set [9] in a line: Agonist activity at human alpha6/4beta4 nicotinic receptor expressed in human HEK cells assessed as intracellular calcium […] by FLIPR relative to control. In kind it is functional, HEK293.
Data set [10] concerns human MDR (P-glycoprotein). Briefly: Efflux ratio of permeability from basolateral to apical side over apical to basolateral side of MDCK cells expressing human MDR gene. Particulars: dog, MDCK-MDR1. The class given is ADME, cell-based, Canis lupus familiaris.
The nature of data set [11]: Apparent permeability from apical to basolateral side of MDCK cells. The settings on record: dog. The class given is ADME, cell-based, Canis lupus familiaris.
The target in data set [12] is Voltage-gated inwardly rectifying potassium channel KCNH2 (Homo sapiens, UniProt Q12809). Briefly: Displacement of [3H]dofetilide from human ERG expressed in HEK293 cells. The class given is cell-based.
Sequence of Voltage-gated inwardly rectifying potassium channel KCNH2 (Q12809 whole entry): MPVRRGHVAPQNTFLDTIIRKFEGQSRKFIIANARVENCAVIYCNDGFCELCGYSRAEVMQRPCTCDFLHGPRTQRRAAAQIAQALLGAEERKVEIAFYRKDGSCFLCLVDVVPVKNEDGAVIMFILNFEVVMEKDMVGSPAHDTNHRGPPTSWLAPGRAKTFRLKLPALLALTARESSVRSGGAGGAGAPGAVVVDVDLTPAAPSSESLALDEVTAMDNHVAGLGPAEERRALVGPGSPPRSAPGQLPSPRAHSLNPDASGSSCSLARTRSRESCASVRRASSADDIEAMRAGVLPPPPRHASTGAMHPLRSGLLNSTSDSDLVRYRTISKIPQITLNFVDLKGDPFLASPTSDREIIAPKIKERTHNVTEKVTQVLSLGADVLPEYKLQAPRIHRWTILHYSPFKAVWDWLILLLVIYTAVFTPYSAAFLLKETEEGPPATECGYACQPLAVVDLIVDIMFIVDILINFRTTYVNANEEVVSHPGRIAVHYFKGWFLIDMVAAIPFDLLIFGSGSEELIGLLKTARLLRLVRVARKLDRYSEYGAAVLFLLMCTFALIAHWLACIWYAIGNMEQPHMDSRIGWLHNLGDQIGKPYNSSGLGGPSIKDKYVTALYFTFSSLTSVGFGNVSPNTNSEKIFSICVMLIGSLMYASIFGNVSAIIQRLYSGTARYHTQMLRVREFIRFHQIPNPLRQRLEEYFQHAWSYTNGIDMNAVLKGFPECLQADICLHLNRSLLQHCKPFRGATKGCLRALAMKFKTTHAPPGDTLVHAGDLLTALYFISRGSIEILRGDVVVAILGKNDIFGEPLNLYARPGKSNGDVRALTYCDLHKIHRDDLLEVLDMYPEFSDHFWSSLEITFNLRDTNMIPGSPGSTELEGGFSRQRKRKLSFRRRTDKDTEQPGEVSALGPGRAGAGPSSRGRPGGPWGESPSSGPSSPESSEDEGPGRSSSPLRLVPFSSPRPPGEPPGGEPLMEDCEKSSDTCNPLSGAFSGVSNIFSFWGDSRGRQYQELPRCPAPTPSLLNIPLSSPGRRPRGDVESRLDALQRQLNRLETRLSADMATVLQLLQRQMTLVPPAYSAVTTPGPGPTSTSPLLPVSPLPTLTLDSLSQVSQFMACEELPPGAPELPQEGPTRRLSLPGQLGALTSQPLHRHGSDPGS
Setting [13] is: Homo sapiens, HEK293, read-out: EC50.

Sequence of Neuronal acetylcholine receptor subunit alpha-7 (P36544 whole entry): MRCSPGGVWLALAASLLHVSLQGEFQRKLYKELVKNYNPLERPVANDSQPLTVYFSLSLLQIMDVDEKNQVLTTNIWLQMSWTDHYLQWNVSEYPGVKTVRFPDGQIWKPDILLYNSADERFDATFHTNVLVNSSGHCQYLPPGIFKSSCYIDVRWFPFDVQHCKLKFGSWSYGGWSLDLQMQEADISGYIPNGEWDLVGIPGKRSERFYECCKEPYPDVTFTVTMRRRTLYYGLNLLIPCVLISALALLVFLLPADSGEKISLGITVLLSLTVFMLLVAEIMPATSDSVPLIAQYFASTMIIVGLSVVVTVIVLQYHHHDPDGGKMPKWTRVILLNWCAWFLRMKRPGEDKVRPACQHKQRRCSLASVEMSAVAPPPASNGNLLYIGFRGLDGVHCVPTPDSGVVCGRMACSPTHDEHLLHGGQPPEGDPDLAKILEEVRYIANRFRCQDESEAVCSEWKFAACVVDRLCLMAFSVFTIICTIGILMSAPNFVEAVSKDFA
Sequence of Neuronal acetylcholine receptor; alpha4/beta2 (P17787 whole entry): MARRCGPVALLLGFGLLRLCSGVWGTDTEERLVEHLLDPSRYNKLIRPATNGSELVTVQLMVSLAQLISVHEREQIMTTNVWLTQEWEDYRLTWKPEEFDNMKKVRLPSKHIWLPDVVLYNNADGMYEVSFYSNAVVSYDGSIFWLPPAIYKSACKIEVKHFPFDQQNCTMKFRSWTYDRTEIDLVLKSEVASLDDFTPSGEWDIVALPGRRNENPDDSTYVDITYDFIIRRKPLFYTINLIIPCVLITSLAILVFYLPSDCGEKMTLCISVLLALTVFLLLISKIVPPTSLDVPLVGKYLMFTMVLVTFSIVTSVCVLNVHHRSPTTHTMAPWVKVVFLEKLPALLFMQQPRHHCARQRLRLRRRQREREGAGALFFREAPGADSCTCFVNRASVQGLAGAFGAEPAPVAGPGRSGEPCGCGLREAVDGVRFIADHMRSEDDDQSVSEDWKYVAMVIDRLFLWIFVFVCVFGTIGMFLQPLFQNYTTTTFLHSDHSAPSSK
Sequence of Neuronal acetylcholine receptor; alpha4/beta2 (P43681 whole entry): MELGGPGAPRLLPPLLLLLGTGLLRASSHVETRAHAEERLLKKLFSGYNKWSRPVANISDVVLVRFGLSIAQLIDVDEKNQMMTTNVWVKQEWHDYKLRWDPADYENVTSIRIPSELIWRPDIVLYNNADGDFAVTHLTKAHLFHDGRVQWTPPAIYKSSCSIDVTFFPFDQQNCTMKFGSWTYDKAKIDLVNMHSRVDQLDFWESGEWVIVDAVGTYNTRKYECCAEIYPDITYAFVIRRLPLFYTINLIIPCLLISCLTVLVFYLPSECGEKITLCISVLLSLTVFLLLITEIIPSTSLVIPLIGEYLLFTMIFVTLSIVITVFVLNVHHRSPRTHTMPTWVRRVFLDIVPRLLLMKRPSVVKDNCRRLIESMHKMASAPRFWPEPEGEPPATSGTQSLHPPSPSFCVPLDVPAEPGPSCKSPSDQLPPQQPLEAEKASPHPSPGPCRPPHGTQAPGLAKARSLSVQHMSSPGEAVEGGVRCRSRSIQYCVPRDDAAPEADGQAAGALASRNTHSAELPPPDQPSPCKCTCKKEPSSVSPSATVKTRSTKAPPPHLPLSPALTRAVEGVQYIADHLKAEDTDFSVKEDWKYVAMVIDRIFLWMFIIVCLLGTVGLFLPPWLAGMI

`Cl.Nc1cncc(-c2ccccc2O[C@H]2C[C@@H]3CNC[C@H]2C3)c1` (racemic): the Efficacy in [1] amounted to 80.5%; in [9] it was 107%. In addition, the Ki in data set [2] is > 15000 nM; in data set [3] it was 5.83 nM; in data set [4], 1.48 nM; in [5] it was > 15000 nM; in [7] (read-out: Ki) it was > 575 nM. The concentration giving a half-maximal response (EC50) is 33.9 nM in data set [6] and 64.4 nM in data set [8] (setting [13]).
As for `COc1ccncc1-c1ccccc1O[C@H]1C[C@@H]2CNC[C@H]1C2.Cl` (racemic), the Efficacy in data set [1] is 49%; in [9], 23%. Moreover, the Ki in [3] was found to be 1.77 nM; in [4] it was 0.882 nM; in data set [7] (read-out: Ki), 477 nM. Besides, the half-maximal effective concentration (EC50) was < 100 nM in [6] and > 30000 nM in [8] (setting [13]).
Regarding `Cl.Fc1cncc(-c2ccccc2O[C@H]2C[C@@H]3CNC[C@H]2C3)c1` (racemic), the Efficacy stood at 84.5% in data set [1] and 45% in data set [9]. The Ki in data set [2] is > 13500 nM; in [3], 10.1 nM; in data set [4], 2.17 nM; in data set [5], > 16900 nM; in data set [12] (hek293), “Not Active”; in data set [7] (read-out: Ki), > 1500 nM. Also, in [10], the efflux ratio was 1.29. For the same compound, the EC50 was found to be 316 nM in [6] and 248 nM in [8] (setting [13]). In data set [11], the Papp A→B came out at 10 ×10⁻⁶ cm/s.
For the compound `CCS(=O)(=O)Nc1cncc(-c2ccccc2O[C@H]2C[C@@H]3CNC[C@H]2C3)c1.Cl` (racemic), the Efficacy in [1] came to 108%; in data set [9] it was 182%. The inhibition constant (Ki) in data set [2] was 9870 nM; in data set [3], 0.313 nM; in [4], 0.149 nM; in data set [5], > 15000 nM; in data set [12] (hek293), “Not Active”; in data set [7] (read-out: Ki), > 604 nM. In addition, in [10], the efflux ratio came out at 0.93. In addition, the values for the EC50 in data set [6] and in data set [8] (setting [13]) were 1.09 nM and 0.37 nM, respectively. For the same compound, the Papp A→B in [11] was 0.44 ×10⁻⁶ cm/s.
For `CS(=O)(=O)Nc1ccncc1-c1ccccc1O[C@H]1C[C@@H]2CNC[C@H]1C2.Cl` (racemic), the Efficacy was 117% in data set [1] and 48% in data set [9]. Also, the Ki in data set [2] was 7590 nM; in [3], 5.21 nM; in data set [4], 0.382 nM; in [5], > 15000 nM; in [7] (read-out: Ki) it was 250 nM. The values for the EC50 in data set [6] and in [8] (setting [13]) were 112 nM and 4.3 nM, respectively.
For the compound `CS(=O)(=O)Nc1cncc(-c2ccccc2O[C@@H]2C[C@H]3CNC[C@@H]2C3)c1.Cl`, the results for the Efficacy in data set [1] and in data set [9] were 122% and 182%, respectively. For the same compound, the Ki in [2] is > 15000 nM; in [3], 3.73 nM; in [4] it was 1.33 nM; in [5], > 15000 nM; in data set [12] (hek293), “Not Active”; in [7] (read-out: Ki), 2900 nM. In addition, in data set [10], the efflux ratio was 4.65. The EC50 in [6] was 2.92 nM; in data set [8] (setting [13]), 2.27 nM. For the same compound, in data set [11], the apical-to-basolateral permeability (Papp A→B) turned out to be 0.84 ×10⁻⁶ cm/s.
For `Cl.Oc1cncc(-c2ccccc2O[C@H]2C[C@@H]3CNC[C@H]2C3)c1` (racemic), the Ki worked out at 1580 nM in data set [2]; 0.425 nM in data set [3]; 0.186 nM in data set [4]; 5000 nM in data set [5]; 1580 nM in [12] (read-out: Ki); 255 nM in [7] (read-out: Ki). Besides, the efflux ratio in [10] worked out at 5.84. For the same compound, the EC50 in data set [6] came out at 2.59 nM; in [8] (hek293, read-out: EC50), 4.3 nM. In addition, the Papp A→B in [11] was 4.05 ×10⁻⁶ cm/s. The Efficacy in data set [9] is reported as 75%.
As for `NC(=O)c1cncc(-c2ccccc2O[C@@H]2C[C@H]3CNC[C@@H]2C3)c1` (stereo in doubt), the Ki was 1130 nM in [3], 496 nM in data set [4] and “Not Active” in data set [7] (hek293).
`Cl.NC(=O)c1cncc(-c2ccccc2O[C@H]2C[C@@H]3CNC[C@H]2C3)c1` (stereo in doubt): the results for the Efficacy in data set [1] and in [9] were 102% and 59.5%, respectively. Further, the Ki was > 15000 nM in data set [2]; 12.5 nM in data set [3]; 3.79 nM in [4]; > 15000 nM in data set [5]; > 963 nM in data set [7] (read-out: Ki). Also, the EC50 in data set [6] is 36.8 nM; in data set [8] (hek293), “Not Active”.
`CN1CCC[C@H]1c1cccnc1` [NICOTINE]: the inhibitory constant (Ki) in data set [3] was determined as 168 nM; in data set [5], 1480 nM.
Turning to `COc1cncc(-c2ccccc2O[C@H]2C[C@@H]3CNC[C@H]2C3)c1.Cl` (racemic), the Efficacy is 11% in data set [1] and <20% in data set [9]. The Ki in data set [3] is 9.01 nM; in data set [4], 94.1 nM; in data set [12] (hek293), “Not Active”; in [7] (read-out: Ki), > 309 nM. In data set [10], the efflux ratio was 1.76. Besides, the EC50 in data set [6] came to 32.7 nM; in data set [8] (setting [13]), 28.9 nM. Also, the Papp A→B in [11] is 24.4 ×10⁻⁶ cm/s.
Consider `Cl.Fc1ccncc1-c1ccccc1O[C@H]1C[C@@H]2CNC[C@H]1C2` (racemic), for which the Efficacy in data set [1] was determined as 65%. Moreover, the Ki was 1.33 nM in data set [3] and 0.856 nM in [4]. Moreover, in data set [10], the efflux ratio is 1.26. Also, the EC50 in [6] is 197 nM; in [8] (setting [13]), 625 nM. Moreover, in [11], the Papp A→B was 13.3 ×10⁻⁶ cm/s.
`Cl.Oc1ccncc1-c1ccccc1O[C@H]1C[C@@H]2CNC[C@H]1C2` (racemic): the figures for the Efficacy in [1] and in data set [9] were 82% and 91%, respectively. In addition, the Ki is > 15000 nM in data set [2]; 3.15 nM in data set [3]; 2.1 nM in data set [4]; > 15300 nM in data set [5]; > 419 nM in [7] (read-out: Ki). The EC50 is 16.3 nM in [6] and 5 nM in data set [8] (setting [13]).
Regarding `c1cncc(-c2ccccc2O[C@@H]2C[C@H]3CNC[C@@H]2C3)c1`, in [1], the Efficacy was 46%. Besides, the Ki is 78.5 nM in data set [3], 16.9 nM in [4] and > 614 nM in data set [7] (read-out: Ki). Further, in data set [8] (setting [13]), the EC50 was 126 nM.
Regarding `Oc1cncc(-c2ccccc2O[C@H]2C[C@@H]3CNC[C@H]2C3)c1` (racemic), in data set [1], the Efficacy turned out to be 117%.
On to `Oc1cncc(-c2ccccc2O[C@H]2C[C@@H]3CNC[C@H]2C3)c1`, for which the Efficacy in [1] amounted to 118%.
`c1cnc2cc3c(cc2n1)[C@@H]1CNC[C@H]3C1` [VARENICLINE]: the Ki is 89 nM in data set [3] and 8200 nM in data set [5].
With `CC(=O)Nc1cncc(-c2ccccc2O[C@H]2C[C@@H]3CNC[C@H]2C3)c1.Cl` (racemic), the Efficacy worked out at 100% in data set [1] and 51% in data set [9]. In addition, the Ki in [2] is > 15000 nM; in [3] it was 17.1 nM; in data set [4] it was 9.53 nM; in [5] it was 530 nM; in data set [7] (read-out: Ki), > 615 nM. Also, the EC50 in [6] came to 252 nM; in [8] (setting [13]), 35.4 nM.
In the case of `CS(=O)(=O)Nc1cncc(-c2ccccc2O[C@H]2C[C@@H]3CNC[C@H]2C3)c1` (racemic), the Efficacy in [1] was found to be 116%.
Take `Cl.Oc1cncc(-c2ccccc2O[C@@H]2C[C@H]3CNC[C@@H]2C3)c1`: the Efficacy was determined as 52% in data set [1] and 70% in data set [9]. Besides, the Ki in [2] was > 15000 nM; in data set [3], 7.16 nM; in data set [4] it was 2.02 nM; in data set [5] it was 8320 nM; in data set [12] (hek293), “Not Active”; in data set [7] (read-out: Ki), 149 nM. In addition, the efflux ratio in data set [10] stood at 3.5. Besides, the EC50 in data set [6] is 34.4 nM. Besides, the Papp A→B in data set [11] is 2.66 ×10⁻⁶ cm/s.
Turning to `c1cncc(-c2ccccc2O[C@H]2C[C@@H]3CNC[C@H]2C3)c1` (racemic), in data set [1], the Efficacy came to 45%.
Turning to `CS(=O)(=O)Nc1cncc(-c2ccccc2O[C@H]2C[C@@H]3CNC[C@H]2C3)c1`, in data set [1], the Efficacy came to 120%.
On to `Cl.Nc1ccncc1-c1ccccc1O[C@H]1C[C@@H]2CNC[C@H]1C2` (racemic), for which the Efficacy in [1] was 97%; in data set [9], 61%. In addition, the Ki in data set [3] was 2.05 nM; in data set [4] it was 0.957 nM; in data set [5] it was 4430 nM; in data set [7] (read-out: Ki) it was > 1040 nM. For the same compound, the EC50 in data set [6] was 33.6 nM; in data set [8] (setting [13]), 265 nM.
In the case of `CS(=O)(=O)Nc1cncc(-c2ccccc2O[C@H]2C[C@@H]3CNC[C@H]2C3)c1.Cl` (racemic), the Ki was 4750 nM in data set [2]; 0.241 nM in data set [3]; 0.243 nM in data set [4]; > 13500 nM in data set [5]; > 424 nM in data set [7] (read-out: Ki). In addition, the half-maximal effective concentration (EC50) in data set [6] worked out at 2.99 nM; in [8] (setting [13]) it was 3.15 nM. Also, the Efficacy in data set [9] is 230%.
With `Cl.c1cncc(-c2ccccc2O[C@H]2C[C@@H]3CNC[C@H]2C3)c1` (racemic), the Ki is 3.8 nM in [3], 1.3 nM in data set [4], 2160 nM in data set [12] (read-out: Ki) and > 1310 nM in data set [7] (read-out: Ki). The efflux ratio in data set [10] amounted to 1.75. Besides, the EC50 in data set [6] turned out to be 57 nM; in data set [8] (setting [13]), 53 nM. Further, the Papp A→B in data set [11] was 30.3 ×10⁻⁶ cm/s. Besides, the Efficacy in data set [9] is given as 32.5%.
